Article PMC2246479, “A phase 1 and pharmacokinetic study of didox: a ribonucleotide reductase inhibitor” (British Journal of Cancer, 1988)

Legend:
ribonucleotide reductase = settings: cited from earlier work
[1] = system: pools of deoxyribonucleotides; settings: cited from earlier work
metastatic carcinoma = assay: Clinical response in the phase 1 study; type: in vivo, human; settings: 34 patients, any dosage level
[2] = system: patients with unresponsive metastatic carcinoma; settings: in vivo
[3] = in vivo
a number of cell lines = settings: continuous drug exposure, no reference given; cited from earlier work
L1210 leukaemia = system: L1210 leukaemia; design: method as in Van't Riet et al., 1979; settings: L1210 leukaemia bearing female mice; ref Van't Riet et al., 1979; cited from earlier work
NCI tumour panel = system: NCI tumour panel; design: method as in Elford & Van't Riet, 1985; settings: ref Elford & Van't Riet, 1985; cited from earlier work
murine tumours = system: murine tumours; design: method as in Elford et al., 1984; settings: ref Elford et al., 1984; cited from earlier work
[4] = design: method as in Van't Riet, personal communication; settings: rats; ref Van't Riet, personal communication; cited from earlier work
mice = settings: single dose, ref CRC Sponsored Toxicity Report, 1984; cited from earlier work

Structure (SMILES): NC(=O)NO [hydroxyurea, reference compound]
- Inhibition of ribonucleotide reductase in vitro (ribonucleotide reductase; ref Elford, 1968): weak inhibitor
- Deoxyribonucleotide pools depleted ([1]; ref Thelander & Reichard 1979): only depleted pools of dGTP and dATP

Structure (SMILES): O=C(NO)c1ccc(O)c(O)c1 [didox, N,3-4 trihydroxy-benzamide]
- Clinical responses (metastatic carcinoma): No clinical responses
- Maximum tolerated dose / dose that can be safely given ([2]; human, iv): 6 g m-2
- Patients with severe diarrhoea (grade 4) [2]: 2 patients
- Total white cell count after didox [2]: > 20 x 109 1-
- Dose above which severe nausea and vomiting almost universal ([2]; iv): above 7 g m- 2
- Dose at which dose limiting toxicity was encountered ([2]; iv): 7.5 g m-2
- Dose at which minor toxicity was initially noted ([2]; iv): 2,304 mg m 2
- Steady state volume of distribution ([3]; human): 27.9 ± 6.2 lm-2
- Total body Clearance ([3]; human): 0.71 ± 0.19 Imin- 1 m-2
- t1/2 alpha ([3]; human): 5.2 min
- t1/2 beta ([3]; human): 41.3 min
- Time to peak level of didox after injection ([3]; human, iv): ≤ 5 min
- Administered dose excreted unchanged in the urine ([3]; iv): Less than 10%
- Time within which the majority of urinary excretion occurred ([3]; iv): ≤ 6 h
- IC50 (ribonucleotide reductase; enzyme study, no reference given, read-out: Concentration causing 50% inhibition of the target enzyme): 30 µM
- Inhibition of ribonucleotide reductase compared to hydroxyurea (ribonucleotide reductase; ref Elford et al., 1979): greater inhibition
- Growth inhibitory concentration in vitro (a number of cell lines): up to 100 uM
- Depletion of the pools of all deoxyribonucleotides ([1]; ref Elford et al., 1981): over 50%
- Anti-neoplastic activity (L1210 leukaemia): anti-neoplastic activity
- Activity in the NCI tumour panel (NCI tumour panel): active
- Interaction with doxorubicin and cyclophosphamide (murine tumours): act synergistically
- Major metabolites formed [4]: 3,4-dihydroxybenzamide, 3-hydroxy-4-methoxybenzo- hydroxamic acid and 3-methoxy-4-hydroxy- benzohydroxamic acid
- LD10 (mice): 643 mg/kg
